Assay results reported in ChEMBL document CHEMBL1201862, “PubChem BioAssay data set” (2004).
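Exposure lasted 48 hours, with cells grown in 96-well plates and compounds tested at five concentrations. GI50 is the concentration that inhibits growth by half.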 Active and inactive are the calls of the source. Cut-off read from the data, not from the text of the source: active = GI50 up to about 1.1 µM and inactive = higher.

How the values were obtained:
Assay in all cases: inhibition of tumour cell growth, NCI panel, 48 h
[1] = tested on: EKVX
[2] = tested on: HCT-116
[3] = tested on: HCT-15
[4] = tested on: HOP-62
[5] = tested on: HT-29
[6] = tested on: KM12
[7] = tested on: M14
[8] = tested on: NCI-H226
[9] = tested on: NCI-H23
[10] = tested on: NCI-H522
[11] = tested on: NCI/ADR-RES
[12] = tested on: SF-268
[13] = tested on: SF-295
[14] = tested on: SN12C
[15] = tested on: SNB-19
[16] = tested on: SW-620
[17] = tested on: T47D
[18] = tested on: TK-10
[19] = tested on: U-251

Compound	GI50 [1]	GI50 [2]	GI50 [3] [µM]	GI50 [4]	GI50 [5]	GI50 [6]	GI50 [7]	GI50 [8]	GI50 [9]	GI50 [10]	GI50 [11]	GI50 [12]	GI50 [13]	GI50 [14]	GI50 [15]	GI50 [16]	GI50 [17]	GI50 [18]	GI50 [19]
COc1ccc2nccc(SCC(=O)O)c2c1	> 100 µM (inactive)	> 100 µM (inactive)	> 100	> 100 µM (inactive)	> 100 µM (inactive)	> 100 µM (inactive)	> 100 µM (inactive)	> 100 µM (inactive)	> 100 µM (inactive)	> 100 µM (inactive)	> 100 µM (inactive)	> 100 µM (inactive)	> 100 µM (inactive)	> 100 µM (inactive)	> 100 µM (inactive)	> 100 µM (inactive)	> 100 µM (inactive)	> 100 µM (inactive)	> 100 µM (inactive)
COC1OC(=O)C(OC)C(OC)C1OC (stereo not given)	> 100 µM (inactive)	> 100 µM (inactive)	> 100	> 100 µM (inactive)	> 100 µM (inactive)	> 100 µM (inactive)	> 100 µM (inactive)	> 100 µM (inactive)	–	> 100 µM (inactive)	> 100 µM (inactive)	> 100 µM (inactive)	> 100 µM (inactive)	> 100 µM (inactive)	> 100 µM (inactive)	> 100 µM (inactive)	> 100 µM (inactive)	> 100 µM (inactive)	> 100 µM (inactive)
COC(=O)C1=C(OC(=O)c2ccccc2)C(C(=O)OC)[C@@]2(O)[C@@H](C(=O)OC)[C@H](C)C[C@@H]1[C@@H]2C(=O)OC (stereo not given in full)	31.6 µM (inactive)	36 µM (inactive)	58.1	33.1 µM (inactive)	34.6 µM (inactive)	28.4 µM (inactive)	28.3 µM (inactive)	45.5 µM (inactive)	30.8 µM (inactive)	13.2 µM (inactive)	19 µM (inactive)	47.8 µM (inactive)	35.1 µM (inactive)	41.8 µM (inactive)	74.6 µM (inactive)	28.6 µM (inactive)	28 µM (inactive)	75.9 µM (inactive)	35.4 µM (inactive)
CN1N=C(c2ccncc2)OC1c1ccccc1F (stereo not given)	> 100 µM (inactive)	> 100 µM (inactive)	> 100	> 100 µM (inactive)	> 100 µM (inactive)	> 100 µM (inactive)	> 100 µM (inactive)	73.1 µM (inactive)	> 100 µM (inactive)	> 100 µM (inactive)	> 100 µM (inactive)	> 100 µM (inactive)	> 100 µM (inactive)	> 100 µM (inactive)	> 100 µM (inactive)	> 100 µM (inactive)	51.8 µM (inactive)	> 100 µM (inactive)	> 100 µM (inactive)
CCn1c(-c2ccc(/N=N/Nc3ccc(-c4n[nH]c(=S)n4CC)cc3)cc2)n[nH]c1=S	2.41 µM (inactive)	3.55 µM (inactive)	3.03	2.74 µM (inactive)	3.55 µM (inactive)	2.44 µM (inactive)	2.65 µM (inactive)	2.24 µM (inactive)	2.53 µM (inactive)	1.67 µM (inactive)	28.8 µM (inactive)	3.24 µM (inactive)	2.46 µM (inactive)	3.02 µM (inactive)	2.55 µM (inactive)	4.8 µM (inactive)	0.861 µM (active)	4.92 µM (inactive)	2.57 µM (inactive)
COc1cc(/C=C2/SC(c3ccccc3)N(c3cc(Cl)ccc3Cl)C2=O)cc(OC)c1OC (stereo not given)	84.9 µM (inactive)	46.3 µM (inactive)	50.6	> 100 µM (inactive)	> 100 µM (inactive)	35.7 µM (inactive)	50.9 µM (inactive)	> 100 µM (inactive)	> 100 µM (inactive)	47.1 µM (inactive)	64.4 µM (inactive)	–	47.1 µM (inactive)	> 100 µM (inactive)	> 100 µM (inactive)	49.9 µM (inactive)	30.1 µM (inactive)	> 100 µM (inactive)	63.4 µM (inactive)
CC(=O)c1cc(C)n2c1CS[C@@H]2c1ccccc1	34.9 µM (inactive)	30.8 µM (inactive)	31.3	83.9 µM (inactive)	46.3 µM (inactive)	54.6 µM (inactive)	> 100 µM (inactive)	41 µM (inactive)	65.6 µM (inactive)	30.2 µM (inactive)	50.1 µM (inactive)	90.2 µM (inactive)	65.9 µM (inactive)	57.3 µM (inactive)	> 100 µM (inactive)	33.7 µM (inactive)	35.6 µM (inactive)	91 µM (inactive)	28.4 µM (inactive)
O=c1oc2ncccc2n1Cc1ccc([N+](=O)[O-])cc1	> 100 µM (inactive)	68.2 µM (inactive)	> 100	> 100 µM (inactive)	> 100 µM (inactive)	> 100 µM (inactive)	> 100 µM (inactive)	> 100 µM (inactive)	> 100 µM (inactive)	> 100 µM (inactive)	> 100 µM (inactive)	> 100 µM (inactive)	> 100 µM (inactive)	> 100 µM (inactive)	–	> 100 µM (inactive)	> 100 µM (inactive)	> 100 µM (inactive)	> 100 µM (inactive)
CCOC(=O)C(C)NC(=O)C(C)NC(=O)C(C)NC(=O)C(C)NC(=O)C(C)NC(=O)OCc1ccccc1 (stereo not given)	> 100 µM (inactive)	> 100 µM (inactive)	> 100	> 100 µM (inactive)	> 100 µM (inactive)	> 100 µM (inactive)	> 100 µM (inactive)	> 100 µM (inactive)	> 100 µM (inactive)	> 100 µM (inactive)	> 100 µM (inactive)	> 100 µM (inactive)	> 100 µM (inactive)	> 100 µM (inactive)	> 100 µM (inactive)	> 100 µM (inactive)	> 100 µM (inactive)	> 100 µM (inactive)	> 100 µM (inactive)
O=C1c2scc(-c3ccc(F)cc3)c2-n2cccc21	24.4 µM (inactive)	18.2 µM (inactive)	32.1	15.6 µM (inactive)	20.8 µM (inactive)	43 µM (inactive)	29.5 µM (inactive)	28.1 µM (inactive)	–	17.3 µM (inactive)	33 µM (inactive)	36.4 µM (inactive)	26.2 µM (inactive)	20.6 µM (inactive)	19.8 µM (inactive)	27.4 µM (inactive)	13.6 µM (inactive)	45.3 µM (inactive)	15.7 µM (inactive)
NC(=O)C[C@H](NC(=O)C1(NC(=O)[C@H](Cc2ccc(CP(=O)(O)O)cc2)NC(=O)C(=O)O)CCCCC1)C(=O)NCCCc1cccc2ccccc12	> 10 µM (inactive)	> 10 µM (inactive)	> 10	> 10 µM (inactive)	> 10 µM (inactive)	> 10 µM (inactive)	> 10 µM (inactive)	7.45 µM (inactive)	> 10 µM (inactive)	> 10 µM (inactive)	> 10 µM (inactive)	> 10 µM (inactive)	> 10 µM (inactive)	> 10 µM (inactive)	> 10 µM (inactive)	> 10 µM (inactive)	> 10 µM (inactive)	> 10 µM (inactive)	> 10 µM (inactive)
